Data on 23 molecules can be found in PMC8705706, “Benzimidazole Derivatives as New and Selective Inhibitors of Arginase from Leishmania mexicana with Biological Activity against Promastigotes and Amastigotes” (International Journal of Molecular Sciences, 2021).

Counter-ions that a name gives are not always drawn.

The target of data set [1] is recombinant arginase from Leishmania mexicana (LmARG) (Leishmania mexicana, UniProt Q6TUJ5). In words: Inhibition of recombinant LmARG, colorimetric urea assay. The class given is biochemical. The conditions noted are these: for inhibition at 200 µM: read-out: % Inhibition LmARG [200 μM]; for Inhibition behavior of LmARG: I50 curves; for IC50: recombinant LmARG, read-out: I50 (concentration that inhibits 50% enzyme activity), LmARG. As for the experimental part:
(§1) The activity of the recombinant arginases was measured in a colorimetric assay with some modifications. Briefly, the enzyme (2 µg) was previously activated with 1 mM MnCl2, 100 mM Tris-HCl, pH 8 during 15 min at 37 °C. Thereafter, 50 mM L-arginine was added, and the reaction was stopped after 10 min using 30 µL of an acid mixture (H2SO4, H3PO4 and H2O [1:3:7]), and 20 µL of 245 mM of α-isonitrosopropiophenone (dissolved in ethanol). Samples were heated in a thermocycler at 95 °C for 1 h. The urea in the samples was measured at 550 nm in a Synergy H1 Hybrid Multi-Mode Microplate Reader (BioTek).
(§2) The fifty molecules with the highest docking score were selected for inhibition studies that were made under the conditions mentioned above, adding the respective compound (dissolved in DMSO) at a concentration of 200 µM, keeping a final 10% DMSO concentration. The concentration that inhibits 50% of the enzyme activity (I50) was determined through curves at different compound concentrations. The I50 was obtained fitting the curves to the equation reported by Téllez-Valencia, et al., 2002 [25].

For data set [2], the system named is Promastigotes of L. mexicana (MNYC/BZ/62/M379). In words: Biological activity against promastigotes, resazurin. The class given is cell-based, Leishmania mexicana. As to conditions: 48 h. As to the method: Promastigotes of L. mexicana (MNYC/BZ/62/M379 reference strain) were grown in Schneider’s medium supplemented with fetal bovine serum 10% (v/v), ampicillin (100 U/mL)/streptomycin (100 µg/mL). Parasites were collected at log phase to assess the compounds and 5 × 10^5 promastigotes were seeded in a 96-wells plate. Compounds were previously dissolved in dimethyl sulfoxide (DMSO) up to a concentration of 1 mg/mL. Thereafter, serial dilutions were made with culture medium from 100 µg/mL to 0.8 µg/mL and then they were added to the wells by triplicates. Parasites non treated and treated with Glucantime, Amphotericin B and Miltefosine were included as […]. Parasites were incubated at 26 °C during 48 h and resazurin 2.5 mM was added at the end into each well. Afterwards, fluorescence intensity was measured with excitation/emission 535/590 nm in a spectrofluorometer (Infinite 200, Tecan Group Ltd., Mannedorf, Switzerland). Finally, half maximal inhibitory concentration (IC50) was determined through a Probit analysis. The assays were made by triplicate in 3 independent experiments.

Data set [3] deals with amastigote of L. mexicana. The data set is described as follows: Biological activity against intracellular amastigotes in J774.2 macrophages, resazurin. The conditions noted are these: intracellular L. mexicana amastigotes in J774.2 macrophages, 48 h. The class given is cell-based, Leishmania mexicana. As to the method:
Biological activity of the benzimidazole derivatives was also evaluated against the amastigote of L. mexicana. For this, 5 × 10^4 murine macrophages J774.2 (ATCC® TIB-67) per well were grown in a plate of 96 wells with RPMI medium at […], 5% CO2 during 24 h. The cells were infected with promastigotes in log phase in a 10:1 proportion (parasite: macrophage) and they were incubated at 37 °C, 5% CO2 during 24–48 h. A wash with RPMI medium to remove the not-infected promastigotes was made. Compounds were added in a serial dilution from 100 µg to 0.8 µg/mL in triplicate and were incubated at 37 °C, 5% CO2 for 48 h. Glucantime, Amphotericin B and Miltefosine were used as reference drugs. Then, the cells were lysed with a non-complemented Schneider’s medium lysis solution with SDS 0.01%, after incubating for 20 min the lysis solution was removed. Afterwards, Schneider medium was added incubating at 26 °C during four days at room temperature to differentiate intracellular amastigotes from free amastigotes. Thereafter, 20 µL of resazurin 2.5 mM was added to each well and incubated during 3 h. Fluorescence intensity and IC50 were measured as described for promastigotes. The assays were made by triplicate in 3 independent experiments.

Data set [4] concerns Murine macrophages J774.2. The arrangement: method as in Matadamas-Martínez et al., 2019 [28]. As to conditions: J774.2 murine macrophages; previous study under the same conditions; ref Matadamas-Martínez et al., 2019 [28]; cited from earlier work.
The test system of data set [5] is L. amazonensis promastigotes. The arrangement: method as in PMID 33198198. As to conditions: cited from earlier work.
The subject of data set [6] is promastigotes. The conditions noted are these: cited from earlier work.
For data set [7], the target named is T1, human arginase 1 (HsARG) (Homo sapiens, UniProt P05089).
T1 construct: made in house; host or cells: E. coli BL21(DE3)pLysS
T1 sequence (P05089 1-322): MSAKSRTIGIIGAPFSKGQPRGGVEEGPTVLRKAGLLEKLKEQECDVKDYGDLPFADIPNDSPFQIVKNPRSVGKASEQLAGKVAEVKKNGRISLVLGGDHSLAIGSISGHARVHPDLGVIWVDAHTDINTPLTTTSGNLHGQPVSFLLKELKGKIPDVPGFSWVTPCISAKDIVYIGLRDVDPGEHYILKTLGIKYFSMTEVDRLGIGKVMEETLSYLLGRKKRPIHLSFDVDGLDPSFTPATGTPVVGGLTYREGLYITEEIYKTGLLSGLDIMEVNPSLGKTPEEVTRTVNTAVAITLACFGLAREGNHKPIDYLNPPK
In words: Inhibition of recombinant human arginase 1, colorimetric urea assay. It counts as biochemical. As to conditions: for Selectivity LmARG versus HsARG: comparison of inhibition of LmARG and HsARG; for Inhibition of recombinant HsARG: highest concentration possible to be tested, 1 mM. As to the method:
as §1, §2

Data set [8] is described as follows: Cytotoxicity assay, resazurin. It counts as cell-based. As to conditions: mouse, J774.2 murine macrophages, maximum concentration evaluated. As for the experimental part:
Murine macrophages J774.2 (ATCC® TIB-67) (5 × 10^4 cells/well) were grown in plates of 96 wells for 24 h at 37 °C in 5% CO2. Thereafter, compounds were added in serial diluted concentrations (100 to 0.8 µg/mL) and they were incubated during 24 h. The cellular vitality was evaluated using resazurin, adding 20 µL to each well at 2.5 mM incubating 4 h. Finally, the cytotoxic concentration (CC50) was determined through a Probit analysis. The assays were made by triplicate in 3 independent experiments. CC50 values of Amphotericin B, Miltefosine and Glucantime were taken from a previous study performed under the same conditions by our research group.

Molecule `COC(=O)Nc1nc2ccc(Cl)cc2n1C` (hydrate or solvate) [Compound 8, Methyl (6-chloro-1-methyl-1H-benzimidazol-2-yl)carbamate] registered a melting point of 191.3 to 192.4 °C.
For `CCCSc1ccc2c(c1)nc(NC(=O)OC)n2C` [Compound 9, Methyl (1-methyl-5-(propylthio)-1H-benzimidazol-2-yl)carbamate], the melting point was 120.5 to 122.1 °C. In data set [1], the inhibition at 200 µM came to 36%.
For the molecule meglumine antimoniate [Glucantime], the results for the IC50 in data set [2] and in data set [3] were 101 µM and 35 µM, respectively. Also, the CC50 in [4] is more than 273 µM.
For `COC(=O)c1cc2c(cc1Cl)nc(SCCNC(=N)N)n2C` [Compound 7, Methyl 5-chloro-2-((2-guanidinoethyl)thio)-1-methyl-1H-benzimidazole-6-carboxylate], the melting point was 172.9 to 173.4 °C. Also, the inhibition at 200 µM in [1] worked out at 40%.
Take `C[C@@H]1[C@H](O)[C@@H](C)/C=C/C=C/C=C/C=C/C=C/C=C/C=C/[C@H](O[C@@H]2O[C@H](C)[C@@H](O)[C@H](N)[C@@H]2O)C[C@@H]2O[C@](O)(C[C@@H](O)C[C@@H](O)[C@H](O)CC[C@@H](O)C[C@@H](O)CC(=O)O[C@H]1C)C[C@H](O)[C@H]2C(=O)O` [Amphotericin B]: the IC50 stood at 0.89 µM in data set [2] (Leishmania mexicana) and 1.3 µM in data set [3] (Leishmania mexicana). In data set [4], the CC50 was 7.4 µM.
In the case of `O=C(/C=C/c1ccc(O)c(O)c1)Nc1ccccc1` [CAPA, caffeic acid phenylamide], the IC50 in data set [5] is 82.6 µM.
For the molecule `COC(=O)c1cc2nc(S)[nH]c2cc1Cl` [Compound 15], in data set [1], the inhibition at 200 µM was 25%.
Same read-out and setting: the same measure for `CCCSc1ccc(NC)c(N)c1` [Compound 13]: 27%.
With `N=C(NO)NCC[C@H](N)C(=O)O` [nor-NOHA], the EC50 in promastigotes entry in data set [6] is “millimolar order”.
`CNc1cc(Cl)ccc1N` [Compound 12]: the inhibition at 200 µM in data set [1] came out at 30%.
As for `NC(=NCCC[C@H](N)C(=O)O)NO` [NOHA], in data set [6], the EC50 in promastigotes result was “millimolar order”.
Regarding `CNc1ccc(Cl)cc1N` [Compound 11], the inhibition at 200 µM in data set [1] worked out at 33%.
Regarding `COC(=O)Nc1nc2cc(Cl)ccc2n1C` [Compound 1, Methyl (5-chloro-1-methyl-1H-benzimidazol-2-yl)carbamate], in data set [1], the “Inhibition behavior of LmARG” value is “cooperative behavior”, the inhibition at 200 µM was found to be 100% and the IC50 is 52 µM. Also, in data set [7], the “Selectivity LmARG versus HsARG” value is reported as “selective to the enzyme from parasite” and the “Inhibition of recombinant HsARG” value is on record as “none of the compounds inhibit completely the enzyme”. Also, in [2] (Leishmania mexicana), the IC50 came to 64 µM. This molecule also came in with an IC50 in [3] (Leishmania mexicana) of 32 µM. The CC50 at 24 h in data set [8] was more than 417 µM.
Regarding `CNC(=O)c1nc2ccc(Cl)cc2n1C` [Compound 5], the inhibition at 200 µM in data set [1] turned out to be 56%.
In the case of `COC(=O)c1cc2c(cc1Cl)nc(SCC=NNC(N)=O)n2C` [Compound 3, Methyl 2-((2-(2-carbamoylhydrazineylidene)ethyl)thio)-5-chloro-1-methyl-1H-benzimidazole-6-carboxylate], the melting point lay in the range of 196.7 to 197.1 °C. For the same molecule, the inhibition at 200 µM in [1] came to 60%.
For `CSc1nc2cc(C(N)=O)c(Cl)cc2[nH]1` [Compound 2, 6-Chloro-2-(methylthio)-1H-benzimidazole-5-carboxamide], in data set [1], the “Inhibition behavior of LmARG” value is recorded as “cooperative behavior”, the inhibition at 200 µM was 100% and the IC50 was determined as 82 µM. Moreover, in [7], the “Selectivity LmARG versus HsARG” value is “selective to the enzyme from parasite” and the “Inhibition of recombinant HsARG” value is reported as “none of the compounds inhibit completely the enzyme”. For the same molecule, the IC50 in [2] (Leishmania mexicana) was found to be 132 µM. Moreover, the IC50 in data set [3] (Leishmania mexicana) was 101 µM. The molecule further came in with a CC50 at 24 h in data set [8] (J774.2 macrophages) of more than 414 µM.
Take `CC(=O)c1nc2ccc(Cl)cc2n1C` [Compound 10]: in data set [1], the inhibition at 200 µM turned out to be 33%.
On the same count and under the same terms, the result for `COC(=O)Nc1nc2ccc(Cl)cc2n1C` [Compound 8, Methyl (6-chloro-1-methyl-1H-benzimidazol-2-yl)carbamate] reads 40%.
Still for that read-out and setting: the same measure for `COC(=O)c1cc2c(cc1Cl)nc(S)n2C` [Compound 16]: 25%; for `CC(=O)c1nc2cc(Cl)ccc2n1C` [Compound 4]: 56%.
For the molecule `CSc1nc2cc(N3CCNCC3)c(Cl)cc2[nH]1` (as salt: HCl) [Compound 6, 6-Chloro-2-(methylthio)-5-(piperazin-1-yl)-1H-benzimidazole], the melting point was in the range of 235 to 237 °C.
As for `CCCCCCCCCCCCCCCCOP(=O)([O-])OCC[N+](C)(C)C` [Miltefosine], the IC50 in [2] (Leishmania mexicana) amounted to 8.1 µM; in [3] (Leishmania mexicana), 8.6 µM. In addition, in data set [4], the CC50 was 141 µM.
On to `CSc1nc2cc(N3CCNCC3)c(Cl)cc2[nH]1` [Compound 6, 6-Chloro-2-(methylthio)-5-(piperazin-1-yl)-1H-benzimidazole], for which the inhibition at 200 µM in [1] is 46%.
